Assay results taken from US6495542B1, “Benzamide derivatives as vasopressin antagonists” (Fujisawa Pharmaceutical Co., Ltd., priority 1998, dated 2002).
Counter-ions that a name gives are not always drawn.

Experiments:
[1] = target: T1, Vasopressin 1 (VI) Receptor (Homo sapiens, UniProt P37288); assay: Vasopressin 1 (V1) receptor binding, 3H-vasopressin competition on human platelet membranes; conditions: competition with 1.5 nM 3H-vasopressin, 15 minutes at 30° C.
T1 construct: Platelet-rich plasma (PRP) was prepared by centrifugation of whole blood; from tissue; host or cells: platelet membranes from blood of a normal subject
Method: (§1) Vasopressin 1 (VI) Receptor Binding
Blood was obtained from normal subject by venipuncture. Platelet-rich plasma (PRP) was prepared by centrifugation of whole blood at 200×g for 10 minutes. PRP was centrifuged at 45,000×g for 30 minutes. The remaining pellet was resuspended in 10 volume of ice-cold 100 mM Tris-HCl buffer (pH 7.4, containing 5 mM MgCl2, 0.1% bovine serum albumin and 1 mM EDTA), and again centrifuged at 45,000×g for 30 minutes. The final pellet was resuspended in 100 mM Tris-HCl buffer. The resulting suspension was used immediately for the binding assay.
(§2) Competition assays were conducted at equilibrium (15 minutes at 30° C.) by using 1.5 nM ^3H-vasopressin (40-87 Ci/mmol; New England Nuclear) in 100 mM Tris-HCl buffer (pH 7.4). Nonspecific binding was determined by using 1 μM vasopressin. After incubation, the reaction was terminated by adding 5 ml of ice-cold 100 mM Tris-HCl buffer (pH 7.4), and then filtered immediately through Whatman glass filter (GF/C). The filter was washed twice with the same buffer. The glass filter was placed in a liquid scintillation cocktail, and the radioactivity thereof was counted by using a liquid scintillation counter. Competition activity of the test compound was represented by IC50 values.

human V2 receptor = target: T2, human V2 receptor (Homo sapiens, UniProt P30518); assay: Vasopressin 2 (V2) receptor binding, 3H-vasopressin competition on membranes of CHO cells expressing human V2 receptor; conditions: human V2 receptor in CHO cells; competition with 0.5 nm 3H-vasopressin, 2 hours at 22° C.
T2 construct: expressed in transfected cells
Description: Vasopressin 2 (V2) Receptor Binding
For binding assays, a receptor cDNA was permanently expressed in Chinese hamster ovary (CHO) cells. A vector directing expression of the cDNA of a human V2 receptor was transfected into the CHO cells, and the clonal cell lines expressing the human V2 receptor were established essentially as described previously (Nakajima, Y., et. al. J. Biol. chem., 267, 2437, 1992).
DNA-transfected cells were harvested and homogenized in ice-cold […] Tris-HCl (pH 7.4), 10 mM MgCl2, 1 mM EDTA and 5 μg/ml p-amidinophenylmethylsulfonyl fluoride (A-PMSF). The homogenate was centrifuged at 500×g for 10 minutes. The supernatant was centrifuged at […] for 1 hour. The final pellet was suspended in 25 mM Tris-HCl buffer (pH 7.4, containing 10 mM MgCl2, 1 mM EDTA and 5 μg/ml A-PMSF), and stored in small aliquots at −80° C.
Competition assays were conducted at equilibrium (2 hours at 22° C.) by using 0.5 nm ^3H-vasopressin (40-87 Ci/mmol; New England Nuclear) in 100 mM Tris-HCl buffer (pH 7.4, containing 5 mM MgCl2, 5 μg/ml A-PMSF, 4 μg/ml leupeptin, 40 μg/ml bacitracin, 20 μg/ml chymostatin and 0.1% bovine serum albimin). Nonspecific binding was determined by using 1 μM vasopressin. After incubation, the reaction mixture was immediately filtered through Whatman glass filter (GF/C). The filter was washed twice with the same buffer. The radioactivity was counted by using a liquid scintillation counter. Competition activity of the test compound was represented by IC50 values.

[2] = target: Vasopressin 1 (VI) Receptor (Rattus norvegicus, UniProt P30560); assay: Vasopressin 1 (V1) receptor binding, rat; conditions: Test 1 V1 receptor binding
Method: as §1, §2

T2 sequence (P30518 whole entry): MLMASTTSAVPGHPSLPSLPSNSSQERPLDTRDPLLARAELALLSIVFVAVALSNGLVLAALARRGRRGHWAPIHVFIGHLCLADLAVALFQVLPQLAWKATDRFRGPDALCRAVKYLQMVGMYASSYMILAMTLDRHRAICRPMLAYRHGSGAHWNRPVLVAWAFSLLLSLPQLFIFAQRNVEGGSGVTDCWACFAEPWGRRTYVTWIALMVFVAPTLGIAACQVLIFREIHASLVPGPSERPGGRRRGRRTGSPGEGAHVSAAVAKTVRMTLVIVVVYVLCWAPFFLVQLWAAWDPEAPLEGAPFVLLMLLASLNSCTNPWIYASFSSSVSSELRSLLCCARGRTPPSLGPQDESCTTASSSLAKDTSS
Sequence of Vasopressin 1 (VI) Receptor (Rattus norvegicus, UniProt P30560) (P30560 whole entry): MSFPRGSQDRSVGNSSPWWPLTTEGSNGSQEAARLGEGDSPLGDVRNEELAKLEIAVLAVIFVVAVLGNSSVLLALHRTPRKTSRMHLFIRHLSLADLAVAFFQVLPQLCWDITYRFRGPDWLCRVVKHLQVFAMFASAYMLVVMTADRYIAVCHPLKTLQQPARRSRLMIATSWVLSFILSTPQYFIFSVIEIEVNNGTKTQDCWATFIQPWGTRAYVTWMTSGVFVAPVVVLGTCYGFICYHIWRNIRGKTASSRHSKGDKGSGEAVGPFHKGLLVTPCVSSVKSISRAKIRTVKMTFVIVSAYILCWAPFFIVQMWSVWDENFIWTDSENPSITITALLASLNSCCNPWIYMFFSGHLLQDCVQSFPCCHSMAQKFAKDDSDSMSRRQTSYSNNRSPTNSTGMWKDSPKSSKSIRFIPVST
T1 sequence (P37288 whole entry): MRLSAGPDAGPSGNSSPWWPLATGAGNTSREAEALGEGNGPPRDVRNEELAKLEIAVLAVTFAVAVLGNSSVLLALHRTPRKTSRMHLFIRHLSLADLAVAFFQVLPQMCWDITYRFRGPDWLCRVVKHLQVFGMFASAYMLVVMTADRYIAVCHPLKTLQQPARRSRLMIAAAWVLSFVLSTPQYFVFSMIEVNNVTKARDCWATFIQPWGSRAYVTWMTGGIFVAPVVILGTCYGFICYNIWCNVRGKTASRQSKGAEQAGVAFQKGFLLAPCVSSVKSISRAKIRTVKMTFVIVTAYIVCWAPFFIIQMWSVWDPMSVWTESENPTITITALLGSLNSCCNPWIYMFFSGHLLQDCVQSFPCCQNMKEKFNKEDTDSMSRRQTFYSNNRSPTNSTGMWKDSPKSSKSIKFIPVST

SMILES	IC50 [1] [nM]	IC50 (human V2 receptor) [nM]	IC50 [2] [nM]
COc1cc(C(=O)N2CCCCc3ccccc32)ccc1C(=O)Nc1cccc2[nH]c(N(C)CCN)nc12 [Example 76, N-[2-[N-(2-Aminoethyl)-N-methylamino]-1H-benzimidazol-4-yl]-2-methoxy-4-(2,3,4,5-tetrahydro-1H-1-benzazepin-1-yl)carbonylbenzamide dihydrochloride]	0.08	140	0.2
COc1cc(C(=O)N2CCCCc3ccccc32)ccc1C(=O)Nc1cccc2[nH]c(C)nc12 [Example 2, 2-methoxy-N-(2-methyl-1H-benzimidazol-4-yl)-4-(2,3,4,5-tetrahydro-1H-1-benzazepin-1-yl)-carbonylbenzamide]	0.41	241	2.1
COc1cc(C(=O)N2CCCCc3ccccc32)ccc1C(=O)Nc1cccc2[nH]c(C(=O)N(C)C)nc12 [Example 73, N-[2-(N,N-Dimethylcarbamoyl)-1H-benzimidazol-4-yl]-2-methoxy-4-(2,3,4,5-tetrahydro-1H-1-benzazepin-1-yl)carbonylbenzamide]	0.5	159	2.2
COc1cc(C(=O)N2CCCCc3ccccc32)ccc1C(=O)Nc1cccc2[nH]cnc12 [Example 50, N-(1H-Benzimidazol-4-yl)-2-methoxy-4-(2,3,4,5-tetrahydro-1H-1-benzazepin-1-yl)carbonylbenzamide hydrochloride]	0.55	69	1.8
CCc1nc2c(NC(=O)c3ccc(C(=O)N4CCCCc5ccccc54)cc3OC)cccc2[nH]1 [Example 55, N-(2-Ethyl-1H-benzimidazol-4-yl)-2-methoxy-4-(2,3,4,5-tetrahydro-1H-1-benzazepin-1-yl)carbonylbenzamide hydrochloride]	0.7	104	1.7
